Drawing on patent US6828330B2, “Quinuclidine-substituted hetero-bicyclic aromatic compounds for the treatment of disease” (Pharmacia & Upjohn Company, priority 2001, dated 2004), this text covers Ki for 7 molecules.

Counter-ions that a name gives are not always drawn.

T1 sequence (Q05941 23-502): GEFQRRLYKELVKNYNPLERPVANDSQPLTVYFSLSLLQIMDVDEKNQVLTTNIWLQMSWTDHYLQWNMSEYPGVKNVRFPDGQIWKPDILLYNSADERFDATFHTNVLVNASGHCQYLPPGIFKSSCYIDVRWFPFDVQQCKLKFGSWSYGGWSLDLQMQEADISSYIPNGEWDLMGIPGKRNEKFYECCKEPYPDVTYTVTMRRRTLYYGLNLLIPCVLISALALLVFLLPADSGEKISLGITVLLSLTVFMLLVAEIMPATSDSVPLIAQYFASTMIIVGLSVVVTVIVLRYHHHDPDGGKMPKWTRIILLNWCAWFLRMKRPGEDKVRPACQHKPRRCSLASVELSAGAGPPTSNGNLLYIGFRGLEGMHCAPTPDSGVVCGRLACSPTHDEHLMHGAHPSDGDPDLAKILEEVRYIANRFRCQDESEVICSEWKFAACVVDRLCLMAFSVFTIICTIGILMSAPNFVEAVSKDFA

The assay has as its target T1, α7 nAChR (Rattus norvegicus, UniProt Q05941).
T1 construct: the brains (whole brain minus cerebellum) are dissected quickly, weighed and homogenized; from tissue; host or cells: rat brain (whole brain minus cerebellum) membranes
The experiment in a line: [3H]-MLA competition binding assay in rat brain membranes. The conditions noted are these: inhibition of [3H]-MLA binding (3.0 to 4.0 nM), rat brain homogenate (whole brain minus cerebellum), 1 hr at 25° C, Cheng-Prusoff. The method, then: Materials and Methods for Identifying Binding Constants
Membrane Preparation. Male Sprague-Dawley rats (300-350 g) are sacrificed by decapitation and the brains (whole brain minus cerebellum) are dissected quickly, weighed and homogenized in 9 volumes/g wet weight of ice-cold 0.32M sucrose using a rotating pestle on setting 50 (10 up and down strokes). The homogenate is centrifuged at 1,000×g for 10 minutes at 4° C. The supernatant is collected and centrifuged at 20,000×g for 20 minutes at 4° C. The resulting pellet is resuspended to a protein concentration of 1-8 mg/mL. Aliquots of 5 mL homogenate are frozen at −80° C. until needed for the assay. On the day of the assay, aliquots are thawed at room temperature and diluted with Kreb's −20 mM Hepes buffer pH 7.0 (at room temperature) containing 4.16 mM NaHCO3, 0.44 mM KH2PO4, 127 mM NaCl, 5.36 mM KCl, 1.26 mM CaCl2, and 0.98 mM MgCl2, so that 25-150 μg protein are added per test tube. Proteins are determined by the Bradford method (Bradford, M. M., Anal. Biochem., 72, 248-254, 1976) using bovine serum albumin as the standard.
Binding Assay. For saturation studies, 0.4 mL homogenate are added to test tubes containing buffer and various concentrations of radioligand, and are incubated in a final volume of 0.5 mL for 1 hr at 25° C. Nonspecific binding was determined in tissues incubated in parallel in the presence of 0.05 ml MLA for a final concentration of 1 μM MLA, added before the radioligand. In competition studies, drugs are added in increasing concentrations to the test tubes before addition of 0.05 ml [^3H]-MLA for a final concentration of 3.0 to 4.0 nM [^3H]-MLA. The incubations are terminated by rapid vacuum filtration through Whatman GF/B glass filter paper mounted on a 48 well Brandel cell harvester. Filters are pre-soaked in 50 mM Tris HCl pH 7.0-0.05% polyethylenimine. The filters are rapidly washed two times with 5 mL aliquots of cold 0.9% saline and then counted for radioactivity by liquid scintillation spectrometry.
Data Analysis. In competition binding studies, the inhibition constant (Ki) was calculated from the concentration dependent inhibition of [^3H]-MLA binding obtained from non-linear regression fitting program according to the Cheng-Prusoff equation (Cheng, Y. C. and Prussoff, W. H., Biochem. Pharmacol., 22, pp. 3099-3108, 1973). Hill coefficients were obtained using non-linear regression (GraphPad Prism sigmoidal dose-response with variable slope).
Turning to `O=C(N[C@H]1CN2CCC1CC2)c1ccc2ocnc2c1` [Example 3, N-((3R)1-azabicyclo[2.2.2]oct-3-yl)-1,3-benzoxazole-5-carboxamide.fumarate], the Ki (as a rule, the equilibrium dissociation constant of an inhibitor or competing ligand from its target) is 0.032 µM. For the molecule `Cc1nc2cc(C(=O)N[C@H]3CN4CCC3CC4)ccc2o1` [Example 4, N-((3R)1-azabicyclo[2.2.2]oct-3-yl)-2-methyl-1,3-benzoxazole-5-carboxamide.fumarate], the Ki came to 0.305 µM. For `O=C(N[C@H]1CN2CCC1CC2)c1ccc2ncsc2c1` [Example 5, N-((3R)1-azabicyclo[2.2.2]oct-3-yl)-1,3-benzothiazole-6-carboxamide.fumarate] the value was 0.03 µM; for `O=C(N[C@H]1CN2CCC1CC2)c1ccc2c(c1)CCC2` [Example 6, N-((3R)1-azabicyclo[2.2.2]oct-3-yl)indane-5-carboxamide.fumarate], 0.11 µM; for `O=C(N[C@H]1CN2CCC1CC2)c1ccc2c(c1)OCO2` [Example 7, N-((3R)-1-azabicyclo[2.2.2]oct-3-yl)-1,3-benzodioxole-5-carboxamide, 4-methylbenzenesulfonate], 0.024 µM.

Molecule `C[C@H]1[C@H](NC(=O)c2ccc3ncsc3c2)C2CCN1CC2` [Example 11, N-[(2S,3R)-2-methyl-1-azabicyclo[2.2.2]oct-3-yl]-1,3-benzothiazole-6-carboxamide hydrochloride] had a Ki of 0.092 µM. The result for `C[C@H]1[C@H](NC(=O)c2nc3ccccc3s2)C2CCN1CC2` [Example 1005, N-[(2S,3R)-2-methyl-1-azabicyclo[2.2.2]oct-3-yl]-1,3-benzothiazole-2-carboxamide hydrochloride] reads 0.073 µM.
